Results taken from patent US12441695B2, “Substituted thiadiazinone dioxide and preparation method therefor, herbicidal composition, and application therefor” (Qingdao Kingagroot Chemical Compound Co., Ltd., priority 2019, dated 2025).

Tests used:
[1] = system: monocotyledonous and dicotyledonous weeds; test: Experiment on weeding effect in post-emergence stage (weeds); assay type: in vivo; details: 3 weeks after application; for Amaranthus retroflexus activity level (growth control rate): fomesafen-resistant Amaranthus retroflexus
From the text: The activity level criteria for plant damage (i.e., growth control rate) are as follows: • Level 5: growth control rate is above 85%; • Level 4: growth control rate is greater than or equal to 60% and less than 85%; • Level 3: growth control rate is greater than or equal to 40% and less than 60%; • Level 2: growth control rate is greater than or equal to 20% and less than 40%; • Level 1: growth control rate is greater than or equal to […]; • Level 0: growth control rate is less than 5%.
(§1) The above growth control rates are fresh weight control rates.
(§2) (1) Experiment on weeding effect in post-emergence stage: monocotyledonous and dicotyledonous weed seeds and major crop seeds (wheat, corn, rice, soybean, cotton, oilseed rape, millet, sorghum) were placed in plastic pots filled with soil, then covered with 0.5-2 cm of soil, allowed to grow in a good greenhouse environment. After 2-3 weeks of sowing, the test plants were treated. The tested compounds of the present invention were respectively dissolved in acetone, then added with Tween 80, diluted with a certain amount of water to obtain a solution with a certain concentration, and sprayed with a spray tower onto the plants. After the application, the plants were cultured for 3 weeks in the greenhouse, and then the experimental results of the weeding were listed in Table 2.

[2] = system: major crops (wheat, corn, rice, soybean, cotton, oilseed rape, millet, sorghum); test: Experiment on weeding effect in post-emergence stage (crops); assay type: in vivo; details: 600 g/ha active ingredient plus water 450 kg/ha, 3 weeks after application; for corn plant damage level (growth control rate): crop corn; for rice plant damage level (growth control rate): crop rice; for soybean plant damage level (growth control rate): crop soybean
Method: as §1
as §2, with “plants.” for “plants. After the application, the plants were cultured for 3 weeks in the greenhouse, and then the experimental results of the weeding were listed in Table 2.”

[3] = 600 g/ha active ingredient plus water 450 kg/ha, fresh weight control rate

SMILES: CC(C)OC(=O)OC(C)N1c2ccc(F)cc2C(=O)N(C(C)C)S1(=O)=O (racemic) [Compound 193]
- Amaranthus retroflexus activity level (growth control rate) [1, 3]: 4 (Level 4: growth control rate is greater than or equal to 60% and less than 85%)
- corn plant damage level (growth control rate) [2]: 0 (Level 0: growth control rate is less than 5%)
- rice plant damage level (growth control rate) [2]: 0 (Level 0: growth control rate is less than 5%)
- soybean plant damage level (growth control rate) [2]: 0 (Level 0: growth control rate is less than 5%)

SMILES: CC(C)N1C(=O)c2cc(F)ccc2N(C(C)OC(=O)OC2CCCCC2)S1(=O)=O (racemic) [Compound 194]
- Amaranthus retroflexus activity level (growth control rate) [1, 3]: 4 (Level 4: growth control rate is greater than or equal to 60% and less than 85%)
- corn plant damage level (growth control rate) [2]: 0 (Level 0: growth control rate is less than 5%)
- rice plant damage level (growth control rate) [2]: 0 (Level 0: growth control rate is less than 5%)
- soybean plant damage level (growth control rate) [2]: 0 (Level 0: growth control rate is less than 5%)

SMILES: CC(C)OC(=O)OC(C)N1c2c(F)cc(F)cc2C(=O)N(C(C)C)S1(=O)=O (racemic) [Compound 226]
- Amaranthus retroflexus activity level (growth control rate) [1, 3]: 5 (Level 5: growth control rate is above 85%)
- corn plant damage level (growth control rate) [2]: 1 (Level 1: growth control rate is greater than or equal to 500 and less than 200%)
- rice plant damage level (growth control rate) [2]: 0 (Level 0: growth control rate is less than 5%)

SMILES: CC(C)N1C(=O)c2cc(F)cc(F)c2N(C(C)OC(=O)OC2CCCCC2)S1(=O)=O (racemic) [Compound 227]
- Amaranthus retroflexus activity level (growth control rate) [1, 3]: 3 (Level 3: growth control rate is greater than or equal to 40% and less than 60%)
- corn plant damage level (growth control rate) [2]: 0 (Level 0: growth control rate is less than 5%)
- rice plant damage level (growth control rate) [2]: 1 (Level 1: growth control rate is greater than or equal to 500 and less than 200%)
- soybean plant damage level (growth control rate) [2]: 1 (Level 1: growth control rate is greater than or equal to 500 and less than 200%)

SMILES: CC(C)N1C(=O)c2cc(Cl)ccc2NS1(=O)=O [A, reference compound]
- Amaranthus retroflexus activity level (growth control rate) [1, 3]: 1 (Level 1: growth control rate is greater than or equal to 500 and less than 200%)
- Digitaria sanguinalis activity level (growth control rate) [1, 3]: 1 (Level 1: growth control rate is greater than or equal to 500 and less than 200%)
- Echinochloa crus-galli activity level (growth control rate) [1, 3]: 1 (Level 1: growth control rate is greater than or equal to 500 and less than 200%)
- Setaria viridis activity level (growth control rate) [1, 3]: 2 (Level 2: growth control rate is greater than or equal to 20% and less than 40%)
- corn plant damage level (growth control rate) [2]: 0 (Level 0: growth control rate is less than 5%)
- rice plant damage level (growth control rate) [2]: 0 (Level 0: growth control rate is less than 5%)
- soybean plant damage level (growth control rate) [2]: 0 (Level 0: growth control rate is less than 5%)

SMILES: CC(C)N1C(=O)c2cc(Br)ccc2NS1(=O)=O [B, reference compound]
- Amaranthus retroflexus activity level (growth control rate) [1, 3]: 1 (Level 1: growth control rate is greater than or equal to 500 and less than 200%)
- Digitaria sanguinalis activity level (growth control rate) [1, 3]: 0 (Level 0: growth control rate is less than 5%)
- Echinochloa crus-galli activity level (growth control rate) [1, 3]: 0 (Level 0: growth control rate is less than 5%)
- Setaria viridis activity level (growth control rate) [1, 3]: 0 (Level 0: growth control rate is less than 5%)
- corn plant damage level (growth control rate) [2]: 0 (Level 0: growth control rate is less than 5%)
- rice plant damage level (growth control rate) [2]: 0 (Level 0: growth control rate is less than 5%)
- soybean plant damage level (growth control rate) [2]: 0 (Level 0: growth control rate is less than 5%)

SMILES: CC(C)N1C(=O)c2cc(I)ccc2NS1(=O)=O [C, reference compound]
- Amaranthus retroflexus activity level (growth control rate) [1, 3]: 0 (Level 0: growth control rate is less than 5%)
- Digitaria sanguinalis activity level (growth control rate) [1, 3]: 0 (Level 0: growth control rate is less than 5%)
- Echinochloa crus-galli activity level (growth control rate) [1, 3]: 0 (Level 0: growth control rate is less than 5%)
- Setaria viridis activity level (growth control rate) [1, 3]: 0 (Level 0: growth control rate is less than 5%)
- corn plant damage level (growth control rate) [2]: 0 (Level 0: growth control rate is less than 5%)
- rice plant damage level (growth control rate) [2]: 0 (Level 0: growth control rate is less than 5%)
- soybean plant damage level (growth control rate) [2]: 0 (Level 0: growth control rate is less than 5%)

SMILES: CC(C)N1C(=O)c2cc(F)ccc2NS1(=O)=O [Compound 2]
- Amaranthus retroflexus activity level (growth control rate) [1, 3]: 5 (Level 5: growth control rate is above 85%)
- Digitaria sanguinalis activity level (growth control rate) [1, 3]: 3 (Level 3: growth control rate is greater than or equal to 40% and less than 60%)
- Echinochloa crus-galli activity level (growth control rate) [1, 3]: 4 (Level 4: growth control rate is greater than or equal to 60% and less than 85%)
- Setaria viridis activity level (growth control rate) [1, 3]: 4 (Level 4: growth control rate is greater than or equal to 60% and less than 85%)
- corn plant damage level (growth control rate) [2]: 1 (Level 1: growth control rate is greater than or equal to 500 and less than 200%)
- rice plant damage level (growth control rate) [2]: 0 (Level 0: growth control rate is less than 5%)
- soybean plant damage level (growth control rate) [2]: 1 (Level 1: growth control rate is greater than or equal to 500 and less than 200%)

SMILES: CC(C)N1C(=O)c2cc(F)ccc2N(C)S1(=O)=O [Compound 49]
- Amaranthus retroflexus activity level (growth control rate) [1, 3]: 5 (Level 5: growth control rate is above 85%)
- Echinochloa crus-galli activity level (growth control rate) [1, 3]: 3 (Level 3: growth control rate is greater than or equal to 40% and less than 60%)
- Setaria viridis activity level (growth control rate) [1, 3]: 3 (Level 3: growth control rate is greater than or equal to 40% and less than 60%)
- corn plant damage level (growth control rate) [2]: 0 (Level 0: growth control rate is less than 5%)
- rice plant damage level (growth control rate) [2]: 0 (Level 0: growth control rate is less than 5%)
- soybean plant damage level (growth control rate) [2]: 0 (Level 0: growth control rate is less than 5%)

SMILES: C#CCN1c2ccc(F)cc2C(=O)N(C(C)C)S1(=O)=O [Compound 51]
- Amaranthus retroflexus activity level (growth control rate) [1, 3]: 5 (Level 5: growth control rate is above 85%)
- Echinochloa crus-galli activity level (growth control rate) [1, 3]: 3 (Level 3: growth control rate is greater than or equal to 40% and less than 60%)
- Setaria viridis activity level (growth control rate) [1, 3]: 3 (Level 3: growth control rate is greater than or equal to 40% and less than 60%)
- corn plant damage level (growth control rate) [2]: 0 (Level 0: growth control rate is less than 5%)
- rice plant damage level (growth control rate) [2]: 0 (Level 0: growth control rate is less than 5%)
- soybean plant damage level (growth control rate) [2]: 0 (Level 0: growth control rate is less than 5%)

SMILES: COCN1c2ccc(F)cc2C(=O)N(C(C)C)S1(=O)=O [Compound 56]
- Amaranthus retroflexus activity level (growth control rate) [1, 3]: 3 (Level 3: growth control rate is greater than or equal to 40% and less than 60%)
- corn plant damage level (growth control rate) [2]: 0 (Level 0: growth control rate is less than 5%)
- rice plant damage level (growth control rate) [2]: 0 (Level 0: growth control rate is less than 5%)
- soybean plant damage level (growth control rate) [2]: 0 (Level 0: growth control rate is less than 5%)

SMILES: CC(C)N1C(=O)c2cc(F)cc(F)c2N(C(=O)OCCCCl)S1(=O)=O [Compound 221]
- Amaranthus retroflexus activity level (growth control rate) [1, 3]: 5 (Level 5: growth control rate is above 85%)
- Digitaria sanguinalis activity level (growth control rate) [1, 3]: 5 (Level 5: growth control rate is above 85%)
- Echinochloa crus-galli activity level (growth control rate) [1, 3]: 4 (Level 4: growth control rate is greater than or equal to 60% and less than 85%)
- Setaria viridis activity level (growth control rate) [1, 3]: 5 (Level 5: growth control rate is above 85%)

SMILES: CCS(=O)(=O)N1c2c(F)cc(F)cc2C(=O)N(C(C)C)S1(=O)=O [Compound 228]
- Amaranthus retroflexus activity level (growth control rate) [1, 3]: 5 (Level 5: growth control rate is above 85%)
- Digitaria sanguinalis activity level (growth control rate) [1, 3]: 3 (Level 3: growth control rate is greater than or equal to 40% and less than 60%)
- Echinochloa crus-galli activity level (growth control rate) [1, 3]: 3 (Level 3: growth control rate is greater than or equal to 40% and less than 60%)
- Setaria viridis activity level (growth control rate) [1, 3]: 5 (Level 5: growth control rate is above 85%)

SMILES: CS(=O)(=O)NC(=O)c1cc(Oc2ccc(C(F)(F)F)cc2Cl)ccc1[N+](=O)[O-] [fomesafen, reference compound]
- Digitaria sanguinalis activity level (growth control rate) ([1]; 300 g/ha): 0 (Level 0: growth control rate is less than 5%)
- Echinochloa crus-galli activity level (growth control rate) ([1]; 300 g/ha): 1 (Level 1: growth control rate is greater than or equal to 500 and less than 200%)
- Setaria viridis activity level (growth control rate) ([1]; 300 g/ha): 2 (Level 2: growth control rate is greater than or equal to 20% and less than 40%)
- Amaranthus retroflexus activity level (growth control rate) ([1]; 300 g/ha): 1 (Level 1: growth control rate is greater than or equal to 500 and less than 200%)
